Laboratory results taken from patent US8927715B2, “Inhibitors of 11β-hydroxysteroid dehydrogenase type 1” (Vitae Pharmaceuticals, Inc., priority 2006, dated 2015).

Target: human 11β-HSD1 (Homo sapiens, UniProt P28845)
Assay: Inhibition of a microsomal preparation of 11β-HSD1, SPA (Biological Test Example 2)
Type: biochemical
Parameters: expressed in transfected cells; host or cells: CHO cells (microsomes)
Conditions: read-out: Biological Test Example 2 (IC50 class)
Description: All reactions are carried out at room temperature in 96 well clear flexible PET Microbeta plates (PerkinElmer). […] After a 10 minute pre-incubation, 50 μL of enzyme solution containing microsomes isolated from CHO cells overexpressing human 11β-HSD1 (10-20 μg/ml of total protein) is added, and the plates are then incubated for 90 minutes at room temperature. The reaction is stopped by adding 50 μl of the SPA beads suspension containing […] 18β-glycyrrhetinic acid, 5 mg/ml protein A coated YSi SPA beads (GE Healthcare) and 3.3 μg/ml of anti-cortisol antibody (East Coast Biologics) in Superblock buffer (Bio-Rad). The plates are then shaken for 120 minutes at room temperature, and the SPA signal corresponding to [^3H]cortisol is measured on a Microbeta plate reader.

human 11β-HSD1, sequence (P28845 whole entry): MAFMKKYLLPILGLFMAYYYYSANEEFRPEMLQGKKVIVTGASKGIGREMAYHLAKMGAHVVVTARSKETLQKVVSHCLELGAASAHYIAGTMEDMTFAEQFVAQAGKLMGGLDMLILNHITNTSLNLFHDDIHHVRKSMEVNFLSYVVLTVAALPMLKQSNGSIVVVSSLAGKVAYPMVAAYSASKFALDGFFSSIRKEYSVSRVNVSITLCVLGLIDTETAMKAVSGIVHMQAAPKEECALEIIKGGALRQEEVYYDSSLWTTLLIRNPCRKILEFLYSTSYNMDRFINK

Molecule	IC50
3-(1′-(2-Adamantyloxycarbonyl)-1H-spiro[isoquinoline-4,4′-piperidine]-2(3H)-ylsulfonyl)propanoic acid [Example 109]	< 50 nM
3-(1′-((2-Adamantyl)carbamoyl)-1H-spiro[isoquinoline-4,4′-piperidine]-2(3H)-yl)propanoic acid [Example 33]	< 50 nM
4-(1′-(2-Adamantyloxycarbonyl)-1H-spiro[isoquinoline-4,4′-piperidine]-2(3H)-yl)-4-oxobutanoic acid [Example 94]	< 50 nM
Cc1ccc2c(c1)C1(CCN(C(=O)NC3C4CC5CC(C4)CC3C5)CC1)CC2CC(=O)O (racemic) [Example 57, (±)-2-(1′-((2-Adamantyl)carbamoyl)-6-methyl-2,3-dihydrospiro[indene-1,4′-piperidine]-3-yl)acetic acid]	< 50 nM
COc1ccc2c(c1)C1(CCN(C(=O)NC3C4CC5CC(C4)CC3C5)CC1)CC2CC(=O)O (racemic) [Example 59, (±)-2-(1′-((2-Adamantyl)carbamoyl)-6-methoxy-2,3-dihydrospiro[indene-1,4′-piperidine]-3-yl)acetic acid]	< 50 nM
O=C(O)CC1CC2(CCN(C(=O)NC3C4CC5CC(C4)CC3C5)CC2)c2cc(F)ccc21 (racemic) [Example 60, (±)-2-(1′-((2-Adamantyl)carbamoyl)-6-fluoro-2,3-dihydrospiro[indene-1,4′-piperidine]-3-yl)acetic acid]	< 50 nM
CCOC(=O)CC1CC2(CCN(C(=O)NC34CC5CC(CC(C5)C3)C4)CC2)c2c(Br)cccc21 (racemic) [Example 61, (±)-Ethyl 2-(7-bromo-1′-((1-adamantyl)carbamoyl)-2,3-dihydrospiro[indene-1,4′-piperidine]-3-yl)acetate]	< 50 nM
O=C(O)CC1CC2(CCN(C(=O)NC34CC5CC(CC(C5)C3)C4)CC2)c2c(Br)cccc21 (racemic) [Example 62, (±)-2-(7-Bromo-1′-((1-adamantyl)carbamoyl)-2,3-dihydrospiro[indene-1,4′-piperidine]-3-yl)acetic acid]	< 50 nM
O=C(O)CC1CC2(CCN(C(=O)OC3C4CC5CC(C4)CC3C5)CC2)c2c(Br)cccc21 (racemic) [Example 63, (±)-2-(7-Bromo-1′-((2-adamantyloxy)carbonyl)-2,3-dihydrospiro[indene-1,4′-piperidine]-3-yl)acetic acid]	< 50 nM
Cc1ccc2c(c1)C1(CCN(C(=O)OC3C4CC5CC(C4)CC3C5)CC1)CC2CC(=O)O (racemic) [Example 64, (±)-2-(6-Methyl-1′-((2-adamantyloxy)carbonyl)-2,3-dihydrospiro[indene-1,4′-piperidine]-3-yl)acetic acid]	< 50 nM
Cc1ccc2c(c1)C(CC(=O)O)CC21CCN(C(=O)OC2C3CC4CC(C3)CC2C4)CC1 (racemic) [Example 65, (±)-2-(5-Methyl-1′-((2-adamantyloxy)carbonyl)-2,3-dihydrospiro[indene-1,4′-piperidine]-3-yl)acetic acid]	< 50 nM
CCOC(=O)C(C)(C)C1CC2(CCN(C(=O)NC3C4CC5CC(C4)CC3C5)CC2)c2c(Br)cccc21 (racemic) [Example 67, (±)-Ethyl 2-(7-bromo-1′-((2-adamantyl)carbamoyl)-2,3-dihydrospiro[indene-1,4′-piperidine]-3-yl)-2-methylpropanoate]	< 50 nM

Next, values leading:

IC50	Molecule
< 50 nM	CCOC(=O)CC1CC2(CCN(C(=O)NC3C4CC5CC(C4)CC3C5)CC2)c2c(Br)cccc21 (racemic) [Example 42, (±)-Ethyl 2-(7-bromo-1′-((2-adamantyl)carbamoyl)-2,3-dihydrospiro[indene-1,4′-piperidine]-3-yl)acetate]
< 50 nM	O=C(O)CC1CC2(CCN(C(=O)NC3C4CC5CC(C4)CC3C5)CC2)c2c(Br)cccc21 (racemic) [Example 43, (±)-2-(7-Bromo-1′-((2-adamantyl)carbamoyl)-2,3-dihydrospiro[indene-1,4′-piperidine]-3-yl)acetic acid]
< 50 nM	N#CCC1CC2(CCN(C(=O)NC3C4CC5CC(C4)CC3C5)CC2)c2ccccc21 (racemic) [Example 45]
< 50 nM	O=C(NC1C2CC3CC(C2)CC1C3)N1CCC2(CC1)CC(Cc1nnn[nH]1)c1ccccc12 (racemic) [Example 46, (±)-3-((1H-Tetrazol-5-yl)methyl)-N-(2-adamantyl)-2,3-dihydrospiro[indene-1,4′-piperidine]-1′-carboxamide]
< 50 nM	CCOC(=O)CC1CC2(CCN(C(=O)NC3C4CC5CC(C4)CC3C5)CC2)c2c(C)cccc21 (racemic) [Example 47, (±)-Ethyl 2-(1′-((2-adamantyl)carbamoyl)-7-methyl-2,3-dihydrospiro[indene-1,4′-piperidine]-3-yl)acetate]
< 50 nM	Cc1cccc2c1C1(CCN(C(=O)NC3C4CC5CC(C4)CC3C5)CC1)CC2CC(=O)O (racemic) [Example 48, (±)-2-(1′-((2-Adamantyl)carbamoyl)-7-methyl-2,3-dihydrospiro[indene-1,4′-piperidine]-3-yl)acetic acid]
< 50 nM	CCOC(=O)CC1CC2(CCN(C(=O)NC3C4CC5CC(C4)CC3C5)CC2)c2cccc(C)c21 (racemic) [Example 49, (±)-Ethyl 2(1′-((2-adamantyl)carbamoyl)-4-methyl-2,3-dihydrospiro[indene-1,4′-piperidine]-3-yl)acetate]
< 50 nM	CCOC(=O)CC1CC2(CCN(C(=O)NC3C4CC5CC(C4)CC3C5)CC2)c2c(Cl)cccc21 (racemic) [Example 51, (±)-Ethyl 2-(1′-((2-adamantyl)carbamoyl)-7-chloro-2,3-dihydrospiro[indene-1,4′-piperidine]-3-yl)acetate]
< 50 nM	O=C(O)CC1CC2(CCN(C(=O)NC3C4CC5CC(C4)CC3C5)CC2)c2c(Cl)cccc21 (racemic) [Example 52, (±)-2-(1′-((2-Adamantyl)carbamoyl)-7-chloro-2,3-dihydrospiro[indene-1,4′-piperidine]-3-yl)acetic acid]
< 50 nM	CCOC(=O)CC1CC2(CCN(C(=O)NC3C4CC5CC(C4)CC3C5)CC2)c2cc(Cl)ccc21 (racemic) [Example 53, (±)-Ethyl 2-(1′-((2-adamantyl)carbamoyl)-6-chloro-2,3-dihydrospiro[indene-1,4′-piperidine]-3-yl)acetate]
< 50 nM	O=C(O)CC1CC2(CCN(C(=O)NC3C4CC5CC(C4)CC3C5)CC2)c2cc(Cl)ccc21 (racemic) [Example 54, (±)-2-(1′-((2-Adamantyl)carbamoyl)-6-chloro-2,3-dihydrospiro[indene-1,4′-piperidin]-3-yl)acetic acid]
< 50 nM	CCOC(=O)CC1CC2(CCN(C(=O)NC3C4CC5CC(C4)CC3C5)CC2)c2ccc(Cl)cc21 (racemic) [Example 55, (±)-Ethyl 2-(1′-((2-adamantyl)carbamoyl)-5-chloro-2,3-dihydrospiro[indene-1,4′-piperidine]-3-yl)acetate]
< 50 nM	O=C(O)CC1CC2(CCN(C(=O)NC3C4CC5CC(C4)CC3C5)CC2)c2ccc(Cl)cc21 (racemic) [Example 56, (±)-2-(1′-((2-Adamantyl)carbamoyl)-5-chloro-2,3-dihydrospiro[indene-1,4′-piperidine]-3-yl)acetic acid]
